Experimental data published in patent US5538876A, “Stabilization of carboxyl esterase” (Gist-brocades, N.V., priority 1989, dated 1996).

target: T1, carboxyl esterase (Bacillus subtilis, UniProt Q59248); test: Effect of chemical modifier on carboxyl esterase stability; format: biochemical; conditions: used as chemical group to modify the enzyme
T1 construct: document's preparation is from B. subtilis 1-85/pNAPT-7 (cloned Thai I-8 gene)
T1 sequence (Q59248 1-300): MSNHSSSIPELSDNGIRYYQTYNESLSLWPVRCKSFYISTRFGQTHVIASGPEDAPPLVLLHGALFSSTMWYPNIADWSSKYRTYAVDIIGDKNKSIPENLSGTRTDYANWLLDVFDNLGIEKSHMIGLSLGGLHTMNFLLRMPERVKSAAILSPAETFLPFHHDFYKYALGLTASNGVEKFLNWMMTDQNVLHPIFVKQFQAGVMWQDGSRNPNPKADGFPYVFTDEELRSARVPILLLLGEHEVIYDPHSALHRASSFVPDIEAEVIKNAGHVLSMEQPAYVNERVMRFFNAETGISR
From the text: In this respect it is to be noticed that only small and not too hydrophilic chemical groups can be used to modify the enzyme.

**Q.** `O=Cc1ccccc1` [Benzaldehyde] was tested. Which “effect on enzyme stability (in words)” value did it give?
**A.** does not have a positive effect on enzyme stability

target: carboxyl esterase (Bacillus subtilis, UniProt Q59248); test: Inactivation of carboxyl esterase by compounds; format: biochemical, Bacillus subtilis Thai 1-8; conditions: reaction conditions, commercially interesting concentrations
Method: The esterase as such is stable at pH=9 and T=40° C. (with and without Tween 80 (TM)) for several hours.

**Q.** For `Oc1ccc2ccccc2c1` [2-naphthol], which “inactivation of carboxyl esterase by the compound (in words)” value (from here on “inactivation of carboxyl esterase”) is on record?
**A.** inactivate the enzyme

**Q.** Which “inactivation of carboxyl esterase” value does the source give for `O=C(O)COc1ccc2ccccc2c1` [2-naphthoxy acetic acid] here?
**A.** inactivate the enzyme

**Q.** `CC(Oc1ccc(Oc2ccc(Cl)cc2Cl)cc1)C(=O)O` (stereo not drawn) [diclofop] was tested. Which “inactivation of carboxyl esterase” value did it give?
**A.** will inactivate the enzyme

**Q.** How did the “inactivation of carboxyl esterase” value turn out when `CC(C)Cc1ccc(C(C)C(=O)O)cc1` (stereo not drawn) [ibuprofen, reference compound] was run?
**A.** inactivate the enzyme

**Q.** With `Oc1ccccc1` [phenol] as the compound, how does the “inactivation of carboxyl esterase” value read?
**A.** inactivate the enzyme
